According to patent publication US8999994B2, “Derivatives of propargylamine having neuroprotective capacity for the treatment of Alzheimer's and Parkinson's diseases” (Consejo Superior de Investigaciones Cientificas, priority 2010, dated 2015):
Read-outs that look alike come from different tables or passages of the source.

What was measured:
Assay type in all cases: biochemical
[1] = target: MAO-B (Rattus norvegicus (Rat), UniProt P19643); test: Inhibition of monoamine oxidase B (Fowler and Tipton radiometric method, rat liver mitochondria)
Sequence of MAO-B (P19643 whole entry): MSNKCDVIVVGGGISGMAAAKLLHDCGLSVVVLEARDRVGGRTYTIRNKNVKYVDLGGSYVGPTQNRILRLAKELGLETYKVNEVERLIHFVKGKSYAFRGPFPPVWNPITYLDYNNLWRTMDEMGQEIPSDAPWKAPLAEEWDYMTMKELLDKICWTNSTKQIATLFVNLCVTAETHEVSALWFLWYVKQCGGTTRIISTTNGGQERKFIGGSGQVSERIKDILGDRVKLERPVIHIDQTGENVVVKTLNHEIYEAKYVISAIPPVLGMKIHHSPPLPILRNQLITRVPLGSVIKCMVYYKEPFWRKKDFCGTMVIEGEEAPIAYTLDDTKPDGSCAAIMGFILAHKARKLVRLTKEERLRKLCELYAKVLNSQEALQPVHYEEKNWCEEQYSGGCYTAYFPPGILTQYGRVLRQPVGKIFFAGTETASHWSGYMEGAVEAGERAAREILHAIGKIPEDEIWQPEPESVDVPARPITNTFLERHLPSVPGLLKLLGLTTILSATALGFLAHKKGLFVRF

[2] = target: MAO-A (Rattus norvegicus (Rat), UniProt P21396); test: Inhibition of monoamine oxidase A (Fowler and Tipton radiometric method, rat liver mitochondria)
Sequence of MAO-A (P21396 whole entry): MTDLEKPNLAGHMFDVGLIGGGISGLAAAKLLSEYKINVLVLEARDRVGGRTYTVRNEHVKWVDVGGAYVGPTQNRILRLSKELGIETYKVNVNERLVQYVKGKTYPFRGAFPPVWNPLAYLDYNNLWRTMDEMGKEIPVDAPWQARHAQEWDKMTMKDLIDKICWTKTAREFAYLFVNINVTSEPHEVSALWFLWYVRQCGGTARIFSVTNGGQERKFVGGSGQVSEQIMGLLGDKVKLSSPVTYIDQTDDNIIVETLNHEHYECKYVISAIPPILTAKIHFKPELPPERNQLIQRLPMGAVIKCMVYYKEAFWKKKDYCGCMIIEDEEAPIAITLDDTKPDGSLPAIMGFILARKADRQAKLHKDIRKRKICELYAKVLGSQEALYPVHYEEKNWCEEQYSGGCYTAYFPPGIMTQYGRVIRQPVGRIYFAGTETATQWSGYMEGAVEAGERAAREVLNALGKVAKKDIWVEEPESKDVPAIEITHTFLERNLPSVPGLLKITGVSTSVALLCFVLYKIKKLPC

[3] = target: AChE (electric eel) (Electrophorus electricus (Electric eel) (Gymnotus electricus), UniProt O42275); settings: acetylthiocholine iodide […], 10 min incubation, mean ± SEM, read-out: IC50 (μM) ChE EeAChE
Sequence of AChE (electric eel) (O42275 whole entry, looked up): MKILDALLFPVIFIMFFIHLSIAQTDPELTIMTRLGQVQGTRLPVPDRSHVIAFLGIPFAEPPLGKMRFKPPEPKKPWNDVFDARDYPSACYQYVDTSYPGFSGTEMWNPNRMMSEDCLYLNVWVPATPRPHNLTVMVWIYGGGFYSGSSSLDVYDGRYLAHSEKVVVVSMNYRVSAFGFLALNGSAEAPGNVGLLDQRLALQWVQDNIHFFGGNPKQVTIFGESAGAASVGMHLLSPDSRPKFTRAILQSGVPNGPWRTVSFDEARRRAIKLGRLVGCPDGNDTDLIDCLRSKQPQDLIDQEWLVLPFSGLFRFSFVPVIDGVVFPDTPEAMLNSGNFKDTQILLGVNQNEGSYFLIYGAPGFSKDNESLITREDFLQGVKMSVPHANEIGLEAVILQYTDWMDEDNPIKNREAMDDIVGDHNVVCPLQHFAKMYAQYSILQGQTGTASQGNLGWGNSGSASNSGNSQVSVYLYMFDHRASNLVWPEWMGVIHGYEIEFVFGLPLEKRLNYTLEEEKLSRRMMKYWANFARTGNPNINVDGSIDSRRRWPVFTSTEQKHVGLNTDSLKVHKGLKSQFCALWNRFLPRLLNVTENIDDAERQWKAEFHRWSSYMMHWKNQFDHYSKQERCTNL

[4] = rat liver mitochondria, [14C]-phenylethylamine 20 μM substrate, 30 min incubation, mean ± SEM
[5] = rat liver mitochondria, [14C]-5-HT 100 μM substrate, 30 min incubation, mean ± SEM, read-out: IC50 (μM) MAO MAO-A

For `C#CCN(C)Cc1cc2cc(OCCCN3CCN(Cc4ccccc4)CC3)ccc2n1C` [Compound 3, N-{(5-[3-(4-benzylpiperazin-1-yl)propoxy)-1-methyl-1H-indol-2-yl]methyl}-N-methylprop-2-yn-1-amine], the IC50 [1, 4] was 1.64 ± 0.707 µM, the IC50 [2] was 0.0305 ± 0.0135 µM and the IC50 [3] was > 100 µM.

In the case of `C#CCN(C)Cc1cc2cc(OCCC3CCN(Cc4ccccc4)CC3)ccc2n1C` [Compound 5, N-((5-(2-(1-benzylpiperidin-4-yl)ethoxy)-1-methyl-1H-indol-2-yl)methyl)-N-methylprop-2-yn-1-amine], the IC50 [1] is reported as 0.13 ± 0.0414 µM, the IC50 [2, 5] is reported as 0.0067 ± 0.0018 µM and the IC50 [3] is reported as 0.42 ± 0.04 µM.

`C#CCN(C)Cc1cc2cc(OCCCN3CCC(Cc4ccccc4)CC3)ccc2n1C` [Compound 2, N-{(5-[3-(4-benzylpiperidin-1-yl)propoxy)-1-methyl-1H-indol-2-yl]methyl}-N-methylprop-2-yn-1-amine] showed an IC50 [1, 4] of 11.3 ± 2.38 µM, an IC50 ([2]; read-out: IC50 (μM) MAO MAO-A) of 0.0654 ± 0.0174 µM and an IC50 [3] of 18.1 ± 0.4 µM.

`C#CCN(C)Cc1cc2cc(OCC3CCN(Cc4ccccc4)CC3)ccc2n1C` [Compound 4, N-{(5-((1-benzylpiperidin-4-yl)methoxy)-1-methyl-1H-indol-2-yl)methyl}-N-methylprop-2-yn-1-amine] showed an IC50 [1] of 0.745 ± 0.0199 µM, an IC50 [2, 5] of 0.0822 ± 0.0032 µM and an IC50 [3] of 0.31 ± 0.04 µM.

`C#CCN(C)Cc1cc2cc(OCCCCC3CCN(Cc4ccccc4)CC3)ccc2n1C` [Compound 7, N-((5-[4-(1-benzylpiperidin-4-yl)butoxy)-1-methyl-1H-indol-2-yl)methyl)-N-methylprop-2-yn-1-amine] showed an IC50 [1, 4] of 2.77 ± 0.116 µM, an IC50 [2, 5] of 0.0105 ± 0.0044 µM and an IC50 [3] of 0.26 ± 0.07 µM.

For `Nc1c2c(nc3ccccc13)CCCC2` [Tacrine, tacrine, reference compound], the “IC50 (μM) MAO MAO-B” value [1] was 499.6 ± 12.8 µM.

`C#CCN(C)Cc1cc2cc(OCCN3CCC(Cc4ccccc4)CC3)ccc2n1C` [Compound 1, N-{(5-[2-(4-benzylpiperidin-1-yl)ethoxy)-1-methyl-1H-indol-2-yl]methyl}-N-methylprop-2-yn-1-amine] was tested, and the IC50 [1, 4] was 1.46 ± 0.499 µM, the IC50 [2, 5] was 0.143 ± 0.0443 µM and the IC50 [3] was > 100 µM.

In the case of `C#CCN(C)Cc1cc2cc(OCCCC3CCN(Cc4ccccc4)CC3)ccc2n1C` [Compound 6, N-((5-[3-(1-benzylpiperidin-4-yl)propoxy)-1-methyl-1H-indol-2-yl)methyl)-N-methylprop-2-yn-1-amine], the IC50 [1, 4] is reported as 0.0431 ± 0.0079 µM and the IC50 [2, 5] is reported as 0.0052 ± 0.0011 µM.
